According to patent publication US9895346B2, “Applications of substituent benzyloxy group containing ether compounds for preparing antitumor drugs” (Sinochem Corporation, priority 2013, dated 2018):

Legend:
[1] = system: human leukemia HL-60 cells; assay: Proliferation inhibition of human leukemia HL-60 cells, MTT method; format: cell-based; conditions: 48 h incubation, OPTI-MEM medium
Protocol: The inhibition rate of human leukemia HL-60 cells was evaluated by regular MTT method. The human leukemia HL-60 cells were picked up from cell incubator, after washed for twice using PBS, cells were digested by 0.25% trypsin, and then add medium to terminate the digestion. After cells were collected using centrifuge and re-suspended, counting cells under inverted microscope and adding medium to make a density which was 5×10^4 cells/mL. After 100 μL aliquots were added to each well of 96-well microtiter plates, cells were cultured in 5% incubator for overnight at 37° C., then the different concentration compounds were added to each well. After incubation for 48 h, MTT solution was added to each well and plates were then incubated for 4 h. The MTT tetrazolium was reduced to formazan by living cells. Then the formazan crystals were dissolved though adding DMSO to each well. The absorbance was read at 570 nm with a microplate reader.

[2] = system: bladder cancer cell line J82; assay: In vitro cell inhibition assay (crystal violet), bladder cancer J82; format: cell-based, human
Excerpt: (§1) In vitro Cell inhibition assay is as follows:
(§2) The human cancer cell lines used for this assay were bladder cancer J82, T24, prostate cancer LNCap, PC-3, lung cancer A549, H157, H460, H520, colon cancer HCT8, HCT116, RkO, and leukemia HL-60, etc.
(§3) In vitro cell culture technology was selected for the determination of inhibition rate bladder cancer cell lines J82 and T24, prostate cancer cell lines LNCap and PC-3, lung cancer cell lines A549, H157, H460 and H520. 1000 to 3000 cells were inoculated to 24-well plate, followed by addition of 1 mL culture medium well known to researchers in this field to each well, the cells were cultured in 5% incubator for 24 hours at 37° C., then the different concentration compounds and controls were added to each well. It should be noted that the added volume is not more than 0.5% of total volume. After completion of addition, the cells continued being cultured in incubator for one week, the culture medium was removed and washed by cold PBS of 1 mL once, and then fixed for 10 minutes at room temperature with 1% formalin, followed by wash with PBS of 1 mL. After fixation, stain was carried out with 0.1% crystal violet for 30 minutes. 0.1% crystal violet was recycled. The stained cells were washed gently with deionized water, dried at room temperature and kepted. The inhibition rate was calculated according to the foiling equation. The controls are Selumetinib (AZD6244), Gefitinib, Cisplatin. Inhibition rate=number of left cells each treatment/number of left cells of untreated control×100%

[3] = system: lung cancer cell line H520; assay: In vitro cell inhibition assay (crystal violet), lung cancer H520; format: cell-based, human
Outline: (§4)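 1000-3000 cells per well grown 24 h at 37 °C, then exposed to compound for one week (vehicle ≤0.5% of volume). Cells formalin-fixed and stained with 0.1% crystal violet. Inhibition rate = remaining cells in treated wells / remaining cells in untreated control × 100%.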

[4] = system: colon cancer HCT8; assay: In vitro cell inhibition assay, colon cancer HCT8; format: cell-based, human
Excerpt: as §1, §2

[5] = system: prostate cancer cell line PC-3; assay: In vitro cell inhibition assay (crystal violet), prostate cancer PC-3; format: cell-based, human
Excerpt: as §1, §2, §3

[6] = system: lung cancer cell line H460; assay: In vitro cell inhibition assay (crystal violet), lung cancer H460; format: cell-based, human
Outline: as §4

[7] = system: prostate cancer cell line LNCap; assay: In vitro cell inhibition assay (crystal violet), prostate cancer LNCap; format: cell-based, human
Excerpt: as §1, §2, §3

[8] = system: bladder cancer cell line T24; assay: In vitro cell inhibition assay (crystal violet), bladder cancer T24; format: cell-based, human
Excerpt: as §1, §2, §3

[9] = system: lung cancer cell line A549; assay: In vitro cell inhibition assay (crystal violet), lung cancer A549; format: cell-based, human
Outline: as §4

[10] = system: colon cancer RkO; assay: In vitro cell inhibition assay, colon cancer RkO; format: cell-based, human
Excerpt: as §1, §2

[11] = system: lung cancer cell line H157; assay: In vitro cell inhibition assay (crystal violet), lung cancer H157; format: cell-based, human
Excerpt: as §1, §2, §3

[12] = system: colon cancer HCT116; assay: In vitro cell inhibition assay, colon cancer HCT116; format: cell-based, human
Excerpt: as §1, §2

CCCCc1c(C)c2ccc(OCc3ccccc3/C(=C\OC)C(=O)OC)cc2oc1=O [Compound 28-72, coumoxystrobin]
>90%: Inhibition rate on human cancer cells ([3]; H520, 0.25 μM) | Inhibition rate on human cancer cells ([11]; H157, 0.25 μM)
45.3%: Proliferation inhibitory effect on human leukemia HL-60 cell (%) ([1]; concentration 1 μM)
95%: Inhibition rate on human cancer cells ([2]; J82, 1.0 μM) | Inhibition rate on human cancer cells ([4]; HCT 8, 0.5 μM) | Inhibition rate on human cancer cells ([6]; H460, 0.25 μM) | Inhibition rate on human cancer cells ([9]; A549, 1.0 μM) | Inhibition rate on human cancer cells ([10]; 0.25 μM) | Inhibition rate on human cancer cells ([12]; HCT 116, 0.5 μM)
54.4%: Proliferation inhibitory effect on human leukemia HL-60 cell (%) ([1]; concentration 100 μM)
80%: Inhibition rate on human cancer cells ([12]; HCT 116, 0.25 μM)
90%: Inhibition rate on human cancer cells ([2]; J82, 0.5 μM) | Inhibition rate on human cancer cells ([9]; A549, 0.5 μM)
100%: Inhibition rate on human cancer cells ([2]; J82, 2.5 μM) | Inhibition rate on human cancer cells ([2]; J82, 5.0 μM) | Inhibition rate on human cancer cells ([3]; H520, 0.5 μM) | Inhibition rate on human cancer cells ([3]; H520, 1.0 μM) | Inhibition rate on human cancer cells ([3]; H520, 2.5 μM) | Inhibition rate on human cancer cells ([3]; H520, 5.0 μM) | Inhibition rate on human cancer cells ([4]; HCT 8, 1.0 μM) | Inhibition rate on human cancer cells ([4]; HCT 8, 2.5 μM) | Inhibition rate on human cancer cells ([4]; HCT 8, 5.0 μM) | Inhibition rate on human cancer cells ([5]; PC-3, 0.25 μM) | Inhibition rate on human cancer cells ([5]; PC-3, 0.5 μM) | Inhibition rate on human cancer cells ([5]; PC-3, 1.0 μM) | Inhibition rate on human cancer cells ([5]; PC-3, 2.5 μM) | Inhibition rate on human cancer cells ([5]; PC-3, 5.0 μM) | Inhibition rate on human cancer cells ([6]; H460, 0.5 μM) | Inhibition rate on human cancer cells ([6]; H460, 1.0 μM) | Inhibition rate on human cancer cells ([6]; H460, 2.5 μM) | Inhibition rate on human cancer cells ([6]; H460, 5.0 μM) | Inhibition rate on human cancer cells ([7]; 0.25 μM) | Inhibition rate on human cancer cells ([7]; 0.5 μM) | Inhibition rate on human cancer cells ([7]; 1.0 μM) | Inhibition rate on human cancer cells ([7]; 2.5 μM) | Inhibition rate on human cancer cells ([7]; 5.0 μM) | Inhibition rate on human cancer cells ([8]; T24, 0.25 μM) | Inhibition rate on human cancer cells ([8]; T24, 0.5 μM) | Inhibition rate on human cancer cells ([8]; T24, 1.0 μM) | Inhibition rate on human cancer cells ([8]; T24, 2.5 μM) | Inhibition rate on human cancer cells ([8]; T24, 5.0 μM) | Inhibition rate on human cancer cells ([9]; A549, 2.5 μM) | Inhibition rate on human cancer cells ([9]; A549, 5.0 μM) | Inhibition rate on human cancer cells ([10]; 0.5 μM) | Inhibition rate on human cancer cells ([10]; 1.0 μM) | Inhibition rate on human cancer cells ([10]; 2.5 μM) | Inhibition rate on human cancer cells ([10]; 5.0 μM) | Inhibition rate on human cancer cells ([11]; H157, 0.5 μM) | Inhibition rate on human cancer cells ([11]; H157, 1.0 μM) | Inhibition rate on human cancer cells ([11]; H157, 2.5 μM) | Inhibition rate on human cancer cells ([11]; H157, 5.0 μM) | Inhibition rate on human cancer cells ([12]; HCT 116, 2.5 μM) | Inhibition rate on human cancer cells ([12]; HCT 116, 5.0 μM)
99%: Inhibition rate on human cancer cells ([12]; HCT 116, 1.0 μM)
47.9%: Proliferation inhibitory effect on human leukemia HL-60 cell (%) ([1]; concentration 10 μM)
70%: Inhibition rate on human cancer cells ([2]; J82, 0.25 μM)
